Laboratory results: patent US10562842B2, “Use of polyaminoisoprenyl derivatives in antibiotic or antiseptic treatment” (UNIVERSITE D'AIX-MARSEILLE, priority 2011, dated 2020)
Converted amounts (≈) assume the structure as drawn.

How the values were obtained:
[1] = test system: Enterobacter aerogenes MDR Ea289; experiment: MIC of antibiotics ± test compound (MIC ratio), micro-broth dilution; type: cell-based; conditions: for MIC ratio Chloramphenicol E. aerogenes Ea289 / MIC ratio Doxycycline E. aerogenes Ea289 / MIC ratio Nalidixic acid E. aerogenes Ea289: Example 4
Procedure: The process consists of treating the MDR bacteria with the compounds of the invention in the presence of antibiotics.
(§1) Susceptibilities to antibiotics and compounds were determined in microplates by broth dilution method, as previously described. Minimal Inhibitory Concentrations (MICs) were determined with an inoculum of 10^6 CFU in 200 μL of MH broth containing two-fold serial dilutions of each drug. […] All MIC determinations were repeated at least three times in independent experiments.
(§2) The MICs of chloramphenicol±test compounds (MIC/4) were determined by the micro-broth dilution method (9). All MIC determinations were repeated at least three times in independent experiments. The MIC ratio corresponds to the ratio of the MIC of an antibiotic alone to the MIC of the same antibiotic in the presence of the tested compound (at MIC/4).
The compounds listed in Table 2 were tested for their ability to decrease the chloramphenicol MIC of Ea289, an Enterobacter aerogenes MDR strain (1). Each compound was first tested at MIC/4. […] All MIC determinations were repeated at least three times in independent experiments.
(§3) For reminder, the MIC ratio corresponds to the ratio of the MIC of the assessed antibiotic alone to the MIC of the same antibiotic in the presence of the tested compound (at MIC/4).

[2] = test system: AG100; experiment: as above; type: cell-based, Escherichia coli; conditions: compound at MIC/4; Example 4
Procedure: as §1, §2, §3

[3] = test system: Ea289; experiment: MIC by broth dilution (intrinsic MIC); type: cell-based, Enterobacter aerogenes; conditions: Klebsiella aerogenes; Enterobacter Ea289
Procedure: as §1

[4] = test system: Ea294; experiment: MIC by broth dilution (intrinsic MIC); type: cell-based, Enterobacter aerogenes; conditions: Klebsiella aerogenes, read-out: intrinsic MIC, Ea294
Procedure: as §1

[5] = test system: AB1; experiment: MIC by broth dilution (intrinsic MIC); type: cell-based; conditions: Acinetobacter baumannii
Procedure: as §1

[6] = test system: AG100; experiment: MIC by broth dilution (intrinsic MIC); type: cell-based; conditions: Escherichia coli AG100
Procedure: as §1

[7] = test system: ATCC 13048; experiment: MIC by broth dilution (intrinsic MIC); type: cell-based; conditions: Klebsiella aerogenes, ATCC13048; Enterobacter ATCC 13048
Procedure: as §1

[8] = test system: ATCC 19606; experiment: MIC by broth dilution (intrinsic MIC); type: cell-based; conditions: Acinetobacter baumannii, ATCC19606; Acinetobacter ATCC 19606
Procedure: as §1

[9] = test system: Ea27; experiment: MIC by broth dilution (intrinsic MIC); type: cell-based; conditions: Klebsiella aerogenes; Enterobacter Ea27
Procedure: as §1

[10] = test system: PA124; experiment: MIC by broth dilution (intrinsic MIC); type: cell-based; conditions: Pseudomonas aeruginosa
Procedure: as §1

[11] = test system: PAO1; experiment: MIC by broth dilution (intrinsic MIC); type: cell-based; conditions: Pseudomonas aeruginosa
Procedure: as §1

[12] = test system: BN10055; experiment: MIC by broth dilution (intrinsic MIC); type: cell-based, Salmonella enterica; conditions: Salmonella enterica; Salmonella BN10055
Procedure: as §1

[13] = test system: BN10055ΔacrB; experiment: MIC by broth dilution (intrinsic MIC); type: cell-based, Salmonella enterica; conditions: Salmonella BN10055ΔacrB
Procedure: as §1

[14] = test system: strain IV2571223 - Escherichia coli pig (sensible); experiment: MIC of antibiotics in the presence and absence of test compound, veterinary strains; type: cell-based; design: MIC for strain IV2571223, Doxycycline in the presence of test compound: unit not given beside the values; conditions: compound at the Concentration (μM) (2-50)
Procedure: (§4) For each strain and each antibiotic, the MICs were determined in the presence and in the absence of one test compound.

[15] = test system: strain IV2571418 - Escherichia coli pig (resistant); experiment: as above; type: cell-based; design: MIC for strain IV2571418, Doxycycline in the presence of test compound: unit not given beside the values; conditions: compound at the Concentration (μM) (4-50)
Procedure: as §4

[16] = test system: strain IV2570060 - Escherichia coli cattle (sensible); experiment: as above; type: cell-based; conditions: compound at the Concentration (μM) (4-50)
Procedure: as §4

[17] = test system: strain IV2570533 - Escherichia coli cattle (resistant); experiment: as above; type: cell-based; conditions: compound at the Concentration (μM) (0.896-12.6)
Procedure: as §4

[18] = test system: CHO-K1 cells; type: cell-based; conditions: for proliferation index, all the tested concentrations: Chinese hamster, 3 h
Procedure: Genotoxicity of compounds 11 and 14 was assessed by micronucleus test. The micronucleus test was performed on CHO-K1 cells with and without metabolic activation. Metabolic activation is obtained by adding in the medium S9 mix. S9 mix contains NADP, G6P and S9 fraction which is a crude preparation of enzymes obtained from the homogenized liver of rats. Briefly, CHO-K1 cells were cultured in Mc Coy's medium 5A and then transferred in the wells of Lab-Tek chamber slides at a concentration of 100 000 cells/ml. The cells were incubated during 24 h at 37° C. at CO2 (5%). The culture medium was replaced by Mc Coy's 5A medium comprising 10% per volume of S9 mix. The test compounds were added at increased concentrations. After being incubated during three hours at 37° C., the cells were rinsed with phosphate buffer (PBS) and then cultured in Mac Coy's 5A medium containing 3 μg/ml cytochalasine B. After an incubation of 21 hours at 37° C., the cells were rinsed, fixed with methanol and coloured with Giemsa 10% during 20 minutes. For each set of assays, the positive control was 0.05 μg/ml of mitomycine C or 5 μg/ml of benzo-a-pyrene. The negative control was culture medium containing 5% of PBS. The stained cells were then analysed by microscopy for the presence of micronuclei. The proliferation index was determined as follows: IP=(2×BIN+MON)/500. MON: number of mononucleated cells and BIN: number of binucleated cells.

[19] = Tolerance in mice, intraperitoneal route; type: in vivo; conditions: day 2, Compound 5 8.8 mg/kg, 8 1.46 mg/kg, 11 0.45 mg/kg, 14 0.35 mg/kg, 12 6.3 mg/kg
Procedure: Mice were administered with increasing doses of test compounds by intraperitoneal route.
The mice were sacrificed on day 2 after the injection of the test compound and autopsied. No morphological anomaly was observed. Liver, lung, kidney and intestine of each mouse were fixed and analysed.

[20] = test system: Enterobacter aerogenes MDR Ea289; experiment: MIC of antibiotics ± test compound (MIC ratio), micro-broth dilution; type: cell-based; conditions: compound at MIC/4, Set 2; for MIC ratio (*) on Ea289 Dox: doxycycline; for MIC ratio (*) on Ea289 Nal: nalidixic acid
[21] = chloramphenicol, compound at MIC/4, Set 2

SMILES | MIC ratio (*) on Ea289 Chl [1, 21] | MIC ratio Chloramphenicol E. aerogenes Ea289 ([1]; compound at MIC/4) | MIC ratio Doxycycline E. aerogenes Ea289 ([1]; compound at MIC/4) | MIC ratio Nalidixic acid E. aerogenes Ea289 ([1]; compound at MIC/4) | MIC ratio Chloramphenicol E. Coli AG100 [2] | MIC ratio Doxycycline E. Coli AG100 [2] | MIC ratio Oxacillin E. Coli AG100 [2] | MIC [3] | MIC [4] | MIC [5] | MIC [6] | MIC [7] | MIC [8] | MIC [9] | MIC [10] | MIC [11] | MIC [12] | intrinsic MIC, BN10055ΔacrB [13] | MIC for strain IV2571223, Doxycycline in the presence of test compound [14] | MIC for strain IV2571223, Tylosine in the presence of test compound [14] | also measured
CC(C)=CCC/C(C)=C/CC/C(C)=C/CNCCCN(C)CCCN [Compound 14, {3-[(3-Amino-propyl)-methyl-amino]-propyl}-((2E,6E)-3,7,11-trimethyl-dodeca-2,6,10-trienyl)-amine] | 8 | 8 | 64 | 32 | 16 | >32 | 16 | 31 µM (≈ 10.8 µg/mL) | 15 µM (≈ 5.24 µg/mL) | 62 µM (≈ 21.7 µg/mL) | 62 µM (≈ 21.7 µg/mL) | 31 µM (≈ 10.8 µg/mL) | 62 µM (≈ 21.7 µg/mL) | 31 µM (≈ 10.8 µg/mL) | 250 µM (≈ 87.4 µg/mL) | 250 µM (≈ 87.4 µg/mL) | 31 µM (≈ 10.8 µg/mL) | 15 µM | 0.03125 | 2 | MIC for strain IV2571418, Doxycycline in the presence of test compound [15]: 2; MIC for strain IV2571418, Tylosine in the presence of test compound [15]: 4; MIC for strain IV2570060, Doxycycline in the presence of test compound [16]: 0.0625; MIC for strain IV2570060, Tylosine in the presence of test compound [16]: 8; MIC for strain IV2570533, Doxycycline in the presence of test compound [17]: 1; MIC for strain IV2570533, Tylosine in the presence of test compound [17]: 8; genotoxicity in vitro (micronucleus test) [18]: not genotoxic in vitro; proliferation index, all the tested concentrations [18]: higher than 50%; tissue anomaly (liver, lung, kidney, intestine) [19]: no significant tissue anomaly; MIC ratio (*) on Ea289 Dox [20]: 64; MIC ratio (*) on Ea289 Nal [20]: 32
CC(C)=CCCC(C)=CCNCCCN(CCCN)CCCN (racemic) [Compound 11, {3-[Bis-(3-amino-propyl)-amino]-propyl}-(3,7-dimethyl-octa-2,6-dienyl)-amine] | 8 | 8 | 32 | 8 | 16 | >32 | 16 | 31 µM (≈ 10.1 µg/mL) | 15 µM (≈ 4.87 µg/mL) | 31 µM (≈ 10.1 µg/mL) | 31 µM (≈ 10.1 µg/mL) | 31 µM (≈ 10.1 µg/mL) | 62 µM (≈ 20.1 µg/mL) | 31 µM (≈ 10.1 µg/mL) | 62 µM (≈ 20.1 µg/mL) | 62 µM (≈ 20.1 µg/mL) | 31 µM (≈ 10.1 µg/mL) | 15 µM | 0.03125 | 16 | Effective concentration (mM) for a MIC ratio of chloramphenicol ≥ 8 on Ea289 ([1]; chloramphenicol): 0.0078 mM; efficient concentration, times lower than the control PAβN ([1]; chloramphenicol MIC ratio of 8 on Ea289): about 4.9 times; activity, effective concentration compared with PAβN to reach a MIC ratio of 8 ([1]; chloramphenicol on Ea289): strong activity; MIC ratio (*) on Ea289 Chl ([1]; chloramphenicol, compound at MIC/4, Set 1): 16; MIC ratio(*) on Ea289 Ery ([1]; erythromycin, compound at MIC/4, Set 1): 32; MIC ratio (*) on Ea289 Nal ([1]; nalidixic acid, compound at MIC/4, Set 1): 8; MIC for strain IV2571418, Doxycycline in the presence of test compound [15]: 2; MIC for strain IV2571418, Tylosine in the presence of test compound [15]: 4; MIC for strain IV2570060, Doxycycline in the presence of test compound [16]: 0.0625; MIC for strain IV2570060, Tylosine in the presence of test compound [16]: 4; MIC for strain IV2570533, Doxycycline in the presence of test compound [17]: 1; MIC for strain IV2570533, Tylosine in the presence of test compound [17]: 4; genotoxicity in vitro (micronucleus test) [18]: not genotoxic in vitro; proliferation index, all the tested concentrations [18]: higher than 50%; tissue anomaly (liver, lung, kidney, intestine) [19]: no significant tissue anomaly; MIC ratio (*) on Ea289 Dox [20]: 32; MIC ratio (*) on Ea289 Nal [20]: 8
